Each structure is given as a SMILES string.

The values that follow come from article PMC6912803, “Sideritis Perfoliata (Subsp. Perfoliata) Nutritive Value and Its Potential Medicinal Properties” (Antioxidants, 2019).

One assay deals with T1, mushroom tyrosinase.
T1 construct: gene PPO3; native commercial mushroom tyrosinase (Sigma-Aldrich), isoenzyme mixture
The assay is described as follows: L-tyrosine oxidation, absorbance at […] nm over […] min. Set-up: reference not given here. The settings on record: 2 mM L-tyrosine stock (110 µL added), potassium phosphate pH 6.5, room temperature, 5 min preincubation. It is filed as biochemical.

The target of assay [1] is T2, Porcine pancreatic elastase (PPE) (Sus scrofa, UniProt P00772).
T2 construct: gene CELA1; mature active protease
Description: N-succinyl-(Ala)3-p-nitroanilide hydrolysis, absorbance at […] nm. It is filed as biochemical. The settings on record: read-out: Positive Control MIC/IC50 ± SD (μg/mL) (converted).

T2 sequence (P00772 27-266): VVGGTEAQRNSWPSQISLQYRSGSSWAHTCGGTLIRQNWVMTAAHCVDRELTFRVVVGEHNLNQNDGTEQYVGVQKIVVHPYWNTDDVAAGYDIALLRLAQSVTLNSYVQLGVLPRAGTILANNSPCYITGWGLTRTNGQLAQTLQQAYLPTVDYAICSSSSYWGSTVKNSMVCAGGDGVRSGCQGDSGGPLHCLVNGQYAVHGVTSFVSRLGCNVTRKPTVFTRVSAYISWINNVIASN

Take `O=c1cc(CO)occ1O` [kojic acid]: in the assay with mushroom tyrosinase, the “Positive Control MIC/IC50 ± SD” value was found to be 2.84 ± 0.23 µg/mL.

Turning to `C[C@H]1[C@H](C)CC[C@]2(C(=O)O)CC[C@]3(C)C(=CC[C@@H]4[C@@]5(C)CC[C@H](O)C(C)(C)[C@@H]5CC[C@]43C)[C@H]12` [ursolic acid], the IC50 in assay [1] was 40.4 µM.
